This note sets out measurements from PMC11791882.

A short description of the data set: on-resin side-chain lactamisation Lys(NH2)/Glu(COOH) after Pd(0)/PhSiH3 removal of Alloc/OAll; DIC 30 eq + OxymaPure 30 eq; ProTide resin 0.19 mmol/g, ca. 300 mL DCM, 2 days. The note with it: the molecule shown is the open-chain precursor, 57-membered ring, scale: % HPLC purity of cyclic product.

Take “Fmoc-Thr(tBu)-Lys(NH2)-Asn(Trt)-His(Trt)-Gln(Trt)-Gly-Pro-Gly-Arg(Pbf)-Gly-Asp(OtBu)-Gln(Trt)-Thr(tBu)-Thr(tBu)-Pro-Ala-Gln(Trt)-Glu(COOH)-Ala-Gln(Trt)-Thr(tBu)-Gly-Trp(Boc)-Val-Gln(Trt)-Asn(Trt)-NH-ProTide resin”: for the setting “48.0 h”, the ring closure, conversion by HPLC was determined as 88.6. The same measure, in the same setting: under “Fmoc-Thr(tBu)-Lys(NH2)-Asn(Trt)-His(Trt)-Gln(Trt)-Ser(tBu)-Ala-Gln(Trt)-Arg(Pbf)-Gly-Asp(OtBu)-Leu-Thr(tBu)-Thr(tBu)-Pro-Ala-Gln(Trt)-Glu(COOH)-Ala-Gln(Trt)-Thr(tBu)-Gly-Trp(Boc)-Val-Gln(Trt)-Asn(Trt)-NH-ProTide resin” stands 73.9. For the substance “Fmoc-Thr(tBu)-Lys(NH2)-Asn(Trt)-His(Trt)-Gln(Trt)-Gly-Pro-Gly-Arg(Pbf)-Gly-Asp(OtBu)-Gln(Trt)-Thr(tBu)-Thr(tBu)-Leu-Ala-Gln(Trt)-Glu(COOH)-Ala-Gln(Trt)-Thr(tBu)-Gly-Trp(Boc)-Val-Gln(Trt)-Asn(Trt)-NH-ProTide resin”, the ring closure, conversion by HPLC (168.0 h) amounted to 0. For the substance “Fmoc-Thr(tBu)-Lys(NH2)-Asn(Trt)-His(Trt)-Gln(Trt)-Gly-Leu-Gly-Arg(Pbf)-Gly-Asp(OtBu)-Gln(Trt)-Thr(tBu)-Thr(tBu)-Pro-Ala-Gln(Trt)-Glu(COOH)-Ala-Gln(Trt)-Thr(tBu)-Gly-Trp(Boc)-Val-Gln(Trt)-Asn(Trt)-NH-ProTide resin”, under “48.0 h”, the ring closure, conversion by HPLC was 80.8.
